Measured values: PMC6266305 (Nutrients, 2018)
Several values for one entry are separate records, joined by “and”; a condition that tells them apart may be missing. Equal values may be shown once. Entries after “also recorded” stand apart in the source; their conditions may differ. Read-outs that look alike come from different tables or passages of the source.

How the values were obtained:
[1] = In vitro digestion model: bioaccessibility of alperujo phenolic compounds added to a test meal (percentage found in the aqueous phase of the digesta); assay type: in vitro ADME; conditions: for recovery: pig
Description: The in vitro digestion was carried out as previously described. […] The mixture was dispersed with Ultra-Turrax® (Ika) and artificial saliva (2.5 mL, pH 7) was added to the mixture. The sample was incubated for 10 min at 37 °C in a shaking incubator. The pH of the gastric medium was adjusted to 4.00 ± 0.02 with 1 M HCl. Then, porcine pepsin (2 mL, 40 mg/mL in 0.1 M HCl) was added and the homogenate was incubated at 37 °C in a shaking incubator for 30 min simulating the gastric step. The pH of the mixture was raised to 6.00 ± 0.02 with 0.9 M NaHCO3 and 13 mL of a mixture of porcine bile extract (39.08 mg/mL) and pancreatin (2.08 mg/mL) in 0.1 M trisodium citrate (pH 6) were added. Samples were incubated in a shaking incubator at 37 °C for 30 min to complete the digestion process. The final mixture representing the digesta was centrifuged (2500 g for 1 h at 10 °C) to separate the aqueous fraction. […] All analyses were run in quadruplicate. Aliquots from salivary, gastric, and duodenal steps were frozen at −80 °C until use. […] After centrifugation (3560 g for 10 min at 4 °C), the lower phase was collected. The solid bottom was re-extracted with 0.3 mL of ethanol and vortexed for 10 min. The second ethanol phase recovered was pooled to the previously collected phase, and then dried using a Speed-Vac®. The dried extracts were dissolved in 200 µL of water. Apical media were directly injected. […] All samples were stored at −80 °C before analysis. All samples were analyzed by UHPLC-DAD-MS using an Acquity UPLC® system that was linked to both a diode-array detector and a Bruker Daltonics HCT Ultra Ion Traps mass spectrometer equipped with an Electron Spray Ionization (ESI) source operating in negative ion mode. The separation was performed on an Acquity C18 BEH column (50 × 2.1 mm i.d., 1.7 µm) kept at 35 °C. The solvents were (A) water/formic acid (99.5/0.5) and (B) acetonitrile. […] Along the three steps of the gradient, the flow rate was 0.30, 0.35, and 0.40 mL/min. […] Chromatograms were acquired at 280 nm. The spectroscopic detection was performed in the range 200–800 nm with a resolution of 1.2 nm.

[2] = Uptake and apical-to-basolateral transport by Caco-2 TC7 cell monolayers of diluted aqueous fractions from in vitro digestions; assay type: in vitro ADME, human; conditions: human; for recovery at 6 h: Caco-2, 6 h; for Basolateral amount as percentage of initial apical amount (Caco-2 transport): whether from alperujo or alperujo-CD, read-out: Bioavailability (basolateral amount compared with initial apical amount)
Description: (§1) Caco-2 TC7 cells were grown in DMEM supplemented with 16% (v/v) fetal bovine serum, 1% (v/v) non-essential amino-acids, and 1% (v/v) antibiotics (complete medium), as previously described. Cells were then seeded at a density of 15 000 cells/well, grown on transwell membrane (six-well plate, […] polycarbonate membrane; Becton Dickinson) and incubated in humidified atmosphere of 5% CO2 and 95% air at 37 °C during 21 days to obtain confluent and differentiated cell monolayers.
(§2) The cytotoxicity on Caco-2 cells of the aqueous fractions from in vitro digestions was first assessed to determine the suitable dilution required before adding the aqueous fractions to the apical side of cell monolayers. […] To avoid any interference with DMEM or serum components, the aqueous fractions were diluted in HBSS. Caco-2 cells also received HBSS in both chambers 12 h before the experiments. At the beginning of each experiment, cells were rinsed twice with 1 mL of PBS. Then, 1 mL of diluted aqueous fraction was added to the apical side and 2 mL of HBSS were added at the basolateral side. After an incubation period (2, 4, or 6 h) at 37 °C, both apical and basolateral media were harvested. Cells were then rinsed twice with 1mL of PBS and scrapped in 0.5 mL of iced-cold PBS. All analyses were run in quadruplicate and samples were stored at −80 °C until further analysis.
(§3) Gallic acid was chosen as internal standard as it was not present in the extract. Phenolic compounds were extracted from salivary, gastric and duodenal samples as follows: 0.3 mL of ethanol and 0.2 mL of n-hexane were added to 0.2 mL of sample and the mixture was stirred for 10 min using a vortex blender at maximal speed. After centrifugation (3560 g for 10 min at 4 °C), the lower phase was collected. The solid bottom was re-extracted with 0.3 mL of ethanol and vortexed for 10 min. The second ethanol phase recovered was pooled to the previously collected phase, and then dried using a Speed-Vac®. The dried extracts were dissolved in 200 µL of water. Apical media were directly injected. To concentrate them, basolateral media (1900 µL) were dried using a Speed-Vac®, and the dried residues were dissolved into 80 µL of water. All samples were stored at −80 °C before analysis.
(§4) Following the procedure by Gallardo et al. (2016), 50 µL of internal standard were added to harvested cells (in 500 µL PBS). Samples were then sonicated for 10 min at room temperature and centrifuged (10,000 g for 10 min at 4 °C). Supernatants were collected and evaporated to dryness. The dried residues were dissolved in 50 µL of water and stored at −80 °C before analysis.
(§5) All samples were analyzed by UHPLC-DAD-MS using an Acquity UPLC® system that was linked to both a diode-array detector and a Bruker Daltonics HCT Ultra Ion Traps mass spectrometer equipped with an Electron Spray Ionization (ESI) source operating in negative ion mode. The separation was performed on an Acquity C18 BEH column (50 × 2.1 mm i.d., 1.7 µm) kept at 35 °C. The solvents were (A) water/formic acid (99.5/0.5) and (B) acetonitrile. The proportions of solvent B used were: 0–10 min: 1–20%, 10–12 min: 20–30%, 12–14 min: 30–100%. Along the three steps of the gradient, the flow rate was 0.30, 0.35, and 0.40 mL/min. The injection volume was 1 μL for digestion and apical medium samples, and 10 µL for cells and basolateral samples. Chromatograms were acquired at 280 nm. The spectroscopic detection was performed in the range 200–800 nm with a resolution of 1.2 nm. The concentrations of phenolic compounds Tyr, CA, and p-Cm were estimated from calibration curves (peak area vs. concentration) with R² values greater than 0.99 [26].
(§6) Results were expressed as means ± standard deviations. Differences between means were assessed using ANOVA followed by the post-hoc Tukey test for parametric data. P values under 0.05 were considered to be significant. […]

[3] = test system: Caco-2 TC7 cells; assay: as above; assay type: in vitro ADME, human; conditions: for Amount found in the cytosolic compartment of Caco-2 cells, percentage of the initial amount at the apical side: 6 h incubation; for Metabolism in the intestinal cells: Caco-2 cells, inferred from total recovery; for FA at the basolateral side as percentage (CA equivalent) of the initial CA amount in the apical side: 6 h, FA is the CA metabolite; for Recovery in the cytosolic compartment of the cells or in the basolateral media (crossing of Caco-2 monolayers, native form): 6-h incubation; for Decrease of amount in the apical media: 6-h incubation on cell monolayers
Description: as §1, §2, §3, §4, §5, §6

[4] = test system: Caco-2 cells; assay: Overall in vitro bioavailability: basolateral amount in Caco-2 cells relative to the initial amount in the test meal before in vitro digestion; assay type: in vitro ADME, human; conditions: mean ± SD (n = 4)
Description: The in vitro digestion was carried out as previously described. […] The mixture was dispersed with Ultra-Turrax® (Ika) and artificial saliva (2.5 mL, pH 7) was added to the mixture. The sample was incubated for 10 min at 37 °C in a shaking incubator. […] Then, porcine pepsin (2 mL, 40 mg/mL in 0.1 M HCl) was added and the homogenate was incubated at 37 °C in a shaking incubator for 30 min simulating the gastric step. […] Samples were incubated in a shaking incubator at 37 °C for 30 min to complete the digestion process. The final mixture representing the digesta was centrifuged (2500 g for 1 h at 10 °C) to separate the aqueous fraction. […] The cytotoxicity on Caco-2 cells of the aqueous fractions from in vitro digestions was first assessed to determine the suitable dilution required before adding the aqueous fractions to the apical side of cell monolayers. […] To avoid any interference with DMEM or serum components, the aqueous fractions were diluted in HBSS. Caco-2 cells also received HBSS in both chambers 12 h before the experiments. At the beginning of each experiment, cells were rinsed twice with 1 mL of PBS. […] Cells were then rinsed twice with 1mL of PBS and scrapped in 0.5 mL of iced-cold PBS. All analyses were run in quadruplicate and samples were stored at −80 °C until further analysis. Results were expressed as means ± standard deviations. Differences between means were assessed using ANOVA followed by the post-hoc Tukey test for parametric data. […] Two parameters were assessed to express the bioavailability: a) the ratio between the mass of phenolic compounds recovered at the basolateral side and the initial mass added to the apical side, b) the ratio between the mass of phenolic compounds recovered at the basolateral side and the initial mass added to the meal.

[5] = set-up: method as in PMID 21494673; conditions: cited from earlier work
[6] = set-up: method as in PMID 27355793; conditions: Tyr from olives; cited from earlier work
[7] = pH 6, in vitro digestion with test meal, average of alperujo and alperujo-CD, mean ± SD, read-out: Bioaccessibility (recovery in the final aqueous phase at the duodenal step)
[8] = pH 6, in vitro digestion, relative to the initial quantity, read-out: Recovery in the digesta
[9] = from alperujo-CD, mean ± SD (n = 4), read-out: Bioavailability in Caco-2 cells (recovery on the basolateral side) as percentage of initial apical amount
[10] = from alperujo, mean ± SD (n = 4), read-out: Bioavailability in Caco-2 cells (recovery on the basolateral side) as percentage of initial apical amount
[11] = read-out: Total recovery in the three compartments (apical, basolateral, cells)

recovery [1, 7]	recovery [1, 8]	recovery at 6 h [2, 9]	recovery at 6 h [2, 10]	recovery at 6 h [2, 11]	Basolateral amount as percentage of initial apical amount (Caco-2 transport) [2]	Amount found in the cytosolic compartment of Caco-2 cells, percentage of the initial amount at the apical side ([3]; from alperujo)	Amount found in the cytosolic compartment of Caco-2 cells, percentage of the initial amount at the apical side ([3]; from alperujo-CD)	Metabolism in the intestinal cells [3]	Bioavailability in Caco-2 cells as percentage of initial amount in the test meal before in vitro digestion (bioaccessibility × absorption by Caco-2 cells) ([4]; from alperujo-CD)	Bioavailability in Caco-2 cells as percentage of initial amount in the test meal before in vitro digestion (bioaccessibility × absorption by Caco-2 cells) ([4]; from alperujo)	Decrease of amount in the apical media ([3]; from alperujo)	Compound	Recovery in the cytosolic compartment of the cells or in the basolateral media (crossing of Caco-2 monolayers, native form) [3]	other results
> 87.9%	≥ 100%	48.7 ± 2%	40.2 ± 4.1%	~100%	> 40%	1.6 ± 0.1%	1.8 ± 0.2%	no metabolism occurred	37.2 ± 3.2 ^a %	32.0 ± 3.2 ^a %	–	O=C(O)/C=C/c1ccc(O)cc1 [p-Cm, p-coumaric acid]	–	Higher bioaccessibility of p-Cm than CA ([1]; in vitro digestion, final aqueous phase): 25%; Improvement of local absorption by β-CD ([3]; alperujo-CD vs alperujo, p < 0.05): 8.5 ± 4.2%; Bioavailability in Caco-2 cells as percentage of initial amount in the test meal before in vitro digestion (bioaccessibility × absorption by Caco-2 cells) ([4]; from alperujo-CD, listed as p-coumaric acid): 37.2 ± 3.2%; Bioavailability in Caco-2 cells as percentage of initial amount in the test meal before in vitro digestion (bioaccessibility × absorption by Caco-2 cells) ([4]; from alperujo, listed as p-coumaric acid): 32.0 ± 3.2%
–	–	–	–	–	–	–	–	–	–	–	–	COc1cc(/C=C/C(=O)O)ccc1O [FA, Ferulic acid]	–	FA at the basolateral side as percentage (CA equivalent) of the initial CA amount in the apical side ([3]; from alperujo-CD): 23.4 ± 2.2% and 23.4 ± 2.2 ^b %; FA at the basolateral side as percentage (CA equivalent) of the initial CA amount in the apical side ([3]; from alperujo): 18.8 ± 1.0% and 18.8 ± 1.0 ^a %; Absorption efficiency of FA through cell monolayers, percentage of the initial CA amount ([3]; alperujo and alperujo-CD): ~ 20%; Bioavailability of FA (CA metabolite) in Caco-2 cells as percentage of initial amount in the test meal before in vitro digestion ([4]; from alperujo-CD): 10.0 ± 1.0 ^a %; Bioavailability of FA (CA metabolite) in Caco-2 cells as percentage of initial amount in the test meal before in vitro digestion ([4]; from alperujo): 8.9 ± 0.5 ^a %
~64.9%	–	–	–	–	–	–	–	–	–	–	~18%	O=C(O)/C=C/c1ccc(O)c(O)c1 [CA, caffeic acid]	neither HT-Glc nor CA was recovered; also recorded: not recovered; also recorded: not found bioavailable in its native form	Recovery in the cytosolic compartment of the cells or in the basolateral media (crossing of Caco-2 monolayers, native form) ([3]; listed as caffeic): did not cross Caco-2 cell monolayers
–	–	–	–	–	–	–	–	–	–	–	–	O=C1C[C@@H](c2ccc(O)cc2)Oc2cc(O)cc(O)c21 [naringenin]	–	Improvement of absorption through the gut epithelium by hydroxypropyl-β-CD [5]: 11 fold
–	–	–	–	–	–	–	–	–	–	–	about 10%	hydroxytyrosol-O-glucoside [HT-Glc]	neither HT-Glc nor CA was recovered; also recorded: no HT-Glc was recovered	Bioaccessibility (recovery in the final aqueous phase at the duodenal step) ([1]; in vitro digestion with test meal, average of alperujo and alperujo-CD, mean ± SD): 73.2 ± 4.5%; Recovery in the cytosolic compartment of the cells or in the basolateral media (crossing of Caco-2 monolayers, native form) ([3]; listed as Hydroxytyrosol-O-glucoside): did not cross Caco-2 cell monolayers
83.7 ± 2.4%	≥ 100%	25.2 ± 1.3%	~22.9%	~100%	> 20%	1.6 ± 0.1%	1.4 ± 0.1%	no metabolism occurred	16.8 ± 0.5 ^a %	16.2 ± 0.6 ^a %	–	OCCc1ccc(O)cc1 [Tyr, tyrosol]	–	Bioavailability in Caco-2 cells as percentage of initial amount in the test meal before in vitro digestion (bioaccessibility × absorption by Caco-2 cells) ([4]; from alperujo-CD, listed as tyrosol): 16.8 ± 0.5%; Bioavailability in Caco-2 cells as percentage of initial amount in the test meal before in vitro digestion (bioaccessibility × absorption by Caco-2 cells) ([4]; from alperujo, listed as tyrosol): 16.2 ± 0.6%; Higher bioaccessibility of Tyr than HT [6]: 16%
